Measurements taken from PubChem BioAssay AID2305 (GlaxoSmithKline (GSK), 2010).

Each compound was assayed on P. falciparum 3D7 growth, pLDH absorbance (assay: P. falciparum 3D7 growth inhibition, dose response, strain 3D7 (AID 2305)).

`Cc1ccc(S(=O)(=O)N(CCCN2CCN(C)CC2)Cc2csc(-c3ccc(CNCc4ccccc4)cc3)n2)cc1` and `CN1CCN(CCCN(Cc2csc(-c3ccc(CNCc4ccccc4)cc3)n2)S(=O)(=O)c2ccc(F)cc2)CC1` are within 1.5-fold of each other in IC50: 840 nM for the first, 860 nM for the second.

Compared with `O=C(Nc1ccc(C2=NC3CCCCC3N2)cc1)Nc1ccc(C2=NC3CCCCC3N2)cc1` (configuration not stated), `Cc1cccc2[nH]c(-c3ccc(-c4ccc(NC(=O)Nc5ccc(Cl)c(Cl)c5)cc4)cc3)nc12` is 4.6-fold higher in IC50: 180 nM for the first, 830 nM for the second.

First: O=C(c1ccc(O)c(-c2cc(Cl)cc(Cl)c2)c1)N(CCO)CCO
Second: CN(C)CCN(C)Cc1ccc(-c2cccc(NC(=O)c3ccc(Cl)cc3)c2)cc1
The IC50 of the first is 1.6-fold higher: 910 nM for the first, 560 nM for the second.

First: CS(=O)(=O)CCNCc1cc(-c2cc3ncnc(Nc4ccc(OCc5cccc(F)c5)c(Cl)c4)c3s2)cs1
Second: Cc1cc(N[C@@H](Cc2ccccc2)C(=O)NCc2cccc(F)c2)nc(NCCc2cccs2)n1
The IC50 of the first is 1.9-fold lower: 330 nM for the first, 620 nM for the second.

Compared with `CCN(CCNC(=O)C1CCN(c2cc(-c3cccc(C)c3)ncn2)CC1)Cc1ccccc1`, `COc1ccc(CNC2CCN(C)CC2)cc1-c1ccc(S(=O)(=O)NCc2ccccc2)c(F)c1` is 4.7-fold higher in IC50: 170 nM for the first, 800 nM for the second. The first is the more potent here.

First: Cn1cc(C(=O)Nc2cccc(-c3cccc(-c4nc5ccc(F)cc5[nH]4)c3)c2)n(C)c1=O
Second: Cn1cncc1C(=O)Nc1cccc(-c2ccc(-c3nc4ccc(F)cc4[nH]3)cc2)c1
The IC50 of the first is 1.9-fold lower: 390 nM for the first, 730 nM for the second.

`c1ccc(C(OCCC2CCN(Cc3cccc4cccnc34)CC2)c2ccccc2)cc1` and `O=C(NC1CCN(Cc2ccc(Cl)cc2)CC1)c1cn(-c2ccccc2)nc1-c1cccnc1` are within 1.5-fold of each other in IC50: 870 nM for the first, 970 nM for the second.

Compared with `Cc1cc2c(cc1C(F)(F)F)N(C(=O)Nc1cc(C(=O)NC3CCN(Cc4ccccc4)C3)cc(C(F)(F)F)c1)CC2` (configuration not stated), `CC(C)c1ccc(CN2CCC(CNC(=O)c3cc(-c4cccc(C(F)(F)F)c4)cs3)C2)cc1` (configuration not stated) is 2.7-fold higher in IC50: 340 nM for the first, 910 nM for the second.

First: COc1ccc(CCNCCCCCCNCCc2ccc(Cl)c3ccccc23)cc1OC
Second: COc1cccc2c(NN=Cc3ccccc3Cl)cc(C)nc12
The IC50 of the first is 2.8-fold higher: 580 nM for the first, 210 nM for the second. The second is the more potent here.

`O=C(Nc1ccc(C(=O)N2CCN(CCN3CCN(c4cccc(C(F)(F)F)c4)CC3)CC2)cc1)c1ccc(C(F)(F)F)cc1` and `CC(C)Oc1ccc(N2CCN(CCCCNC(=O)c3ccc(NC(=O)c4ccc(Cl)cc4)cc3)CC2)c(OC(C)C)c1` are within 1.5-fold of each other in IC50: 690 nM for the first, 510 nM for the second.

Going from `Cc1ccccc1CNCC(O)c1cccc(C(F)(F)F)c1` (configuration not stated) to `OC(CNCc1ccccc1OCc1ccccc1)c1cccc(C(F)(F)F)c1` (configuration not stated), the IC50 falls from 880 nM to 360 nM (2.4-fold).

Going from `CCN(CCCN1CCCCC1)c1cc(C)nc(Nc2ccc(Br)cc2F)n1` to `O=C(NCCN1CCCC1)c1ccc(-c2ccc(-c3nc4ccccc4[nH]3)s2)cc1`, the IC50 rises from 550 nM to 940 nM (1.7-fold). The first is the more potent here.

`O=C(NCCc1ccccc1)N(Cc1ccccc1-c1cccc(CNCCc2ccccc2)c1)C1CCN(Cc2ccccc2)CC1` and `CC(C)(C)NCCN(Cc1ccc(-c2ccc(C(F)(F)F)cc2)cc1)C(=O)Cn1c(CCc2cccc(F)c2F)nc(=O)c2ccccc21` are within 1.5-fold of each other in IC50: 620 nM for the first, 760 nM for the second.

Going from `CCc1cn2c3c(cc(C(=O)N[C@@H](Cc4cccc(Cl)c4)[C@H](O)CNC4CC4)cc13)N(C)S(=O)(=O)CC2` to `CCNc1cc(C(=O)N[C@@H](Cc2ccccc2)[C@H](O)CNC(C)(C)Cc2cccc(Cl)c2)cc(N2CCCCS2(=O)=O)c1`, the IC50 rises from 150 nM to 890 nM (5.9-fold).

Going from `Cn1cnc(CCNC(=O)c2ccc(-c3cccc(-c4nc5ccccc5[nH]4)c3)cc2)c1` to `Cn1cnc(CCNC(=O)c2cccc(-c3csc(-c4nc5ccccc5[nH]4)c3)c2)c1`, the IC50 falls from 1100 nM to 600 nM (1.8-fold). The second is the more potent here.

`N#Cc1cccc(COC(=O)C2=C(COc3ccccc3Cl)NC(=O)NC2c2c[nH]c3cnccc23)c1` (configuration not stated) and `O=[N+]([O-])c1ccc(Oc2c(Cl)cc(S(=O)(=O)N3CCC(CN4CCC(c5c[nH]c6ccccc56)CC4)CC3)cc2Cl)c(Cl)c1` are within 1.5-fold of each other in IC50: 790 nM for the first, 1000 nM for the second.

First: Cc1ccccc1N1CCN(c2ccc(C(=O)NC3CC3)cn2)CC1
Second: O=C(NC1CCC(N2CCN(c3cccc(C(F)(F)F)c3)CC2)CC1)c1cc2ccccc2[nH]1 (configuration not stated)
The IC50 of the first is 1.6-fold lower: 460 nM for the first, 720 nM for the second.

`COc1ccc2nccc([C@@H](O)CN3CCC(NCc4cc5c(cc4F)SCC(=O)N5)CC3)c2n1` and `COc1cc(C=CC(=O)N2CCC(CCN3CCC(c4c[nH]c5ccccc45)CC3)CC2)cc(OC)c1` are within 1.5-fold of each other in IC50: 1000 nM for the first, 910 nM for the second.

`ON=C1CCc2cc(-c3nc(-c4cccc(OCCNCc5ccc(F)cc5)c4)[nH]c3-c3ccncc3)ccc21` and `O=C(Nc1cccc(-c2cccc(-c3nc4ccccc4[nH]3)c2)c1)c1ccoc1` are within 1.5-fold of each other in IC50: 890 nM for the first, 740 nM for the second.

`CCN(CC)CCN(Cc1ccc(-c2ccc(C(F)(F)F)cc2)cc1)C(=O)Cn1c(CCc2cccc(F)c2F)cc(=O)c2c1CCCC2` and `CCCNCc1ccc(-c2ccc(CN(CCOC)C(=O)CC3CCCC3=O)cc2)nc1` (configuration not stated) are within 1.5-fold of each other in IC50: 870 nM for the first, 1240 nM for the second.

`Cc1ccc(-c2noc(=O)n2CC(=O)Nc2ccccc2-c2ccccc2)cc1` and `Cc1ccc(S(=O)(=O)N2CCN(C(=O)c3cc(-c4ccccc4)n[nH]3)CC2)cc1` are within 1.5-fold of each other in IC50: 810 nM for the first, 600 nM for the second.

First: O=C(Nc1ccc(SC(F)(F)F)cc1)Nc1ccnc2ccccc12
Second: COc1ccccc1Cc1nc2ccccc2nc1SCC(=O)Nc1cccc(C(F)(F)F)c1
The IC50 of the first is 1.5-fold higher: 750 nM for the first, 500 nM for the second. The second is the more potent here.

`CCc1ccc(NC(=O)c2ccc(CN3CCCN(Cc4cccs4)CC3)cc2)cc1` and `COc1ccc(NC(=O)N2CCCN(CCCCCNC(=O)/C=C/c3ccc(Cl)cc3)CC2)cc1Cl` are within 1.5-fold of each other in IC50: 830 nM for the first, 810 nM for the second.

`CN(C(=O)Cc1ccc(Cl)cc1)C1CCN(CCCCCNC(=O)/C=C/c2ccc(Cl)c(Cl)c2)CC1` and `O=C(/C=C/c1ccc(Cl)cc1)NCCCCCN1CCN(C(=O)C=Cc2ccc(Cl)c(Cl)c2)CC1` are within 1.5-fold of each other in IC50: 720 nM for the first, 990 nM for the second.

Compared with `CC(C)C[C@H](NC(=O)c1cc2cc(OCCN3CCNCC3)ccc2o1)C(=O)NC1CC[C@@H](C)N(C(=O)Nc2ccc(Cl)cc2)CC1=O` (some centres not stated), `CCCCCCOc1ccc(C(=O)N[C@H]2CCN(CCCCCNC(=O)/C=C/c3ccc(Cl)c(Cl)c3)C2)cc1` is 1.8-fold higher in IC50: 380 nM for the first, 690 nM for the second.

Going from `Nc1nccc2ccc(-c3cccc4ncccc34)cc12` to `CCCCNc1nccc2ccc(-c3ccncc3)cc12`, the IC50 rises from 50 nM to 770 nM (15-fold). The first is the more potent here.

Compared with `CCCCCCCc1ccc(-c2c(C)[nH]c(C)c(Cl)c2=O)cn1`, `CCCNCc1ccc(-c2ccc(CN(Cc3cnc(C)cn3)C(=O)/C=C/c3ccccc3C)cc2)nc1` is 2.6-fold higher in IC50: 360 nM for the first, 920 nM for the second. The first is the more potent here.

`Cc1cc2nc(-c3ccc(C(=O)NCc4cccc(C(F)(F)F)c4)cc3)[nH]c2cc1C` and `Cc1cccc2[nH]c(-c3ccc(-c4cccc(C(=O)NCCc5cn(C)cn5)c4)s3)nc12` are within 1.5-fold of each other in IC50: 810 nM for the first, 880 nM for the second.

Going from `N=c1c2c(n(Cc3cccc(Cl)c3)c3c1CCC3)CCCC2` to `Clc1cccc(CNc2nc(NCCc3cnc[nH]3)nc(NC3CCCCC3)n2)c1`, the IC50 rises from 190 nM to 790 nM (4.2-fold).

`CSc1cccc(NC(=O)c2cc3ccccc3oc2=O)c1` and `COc1ccc(-c2onc(C(F)(F)F)c2-c2cc3ccccc3o2)c(O)c1` are within 1.5-fold of each other in IC50: 830 nM for the first, 860 nM for the second.

First: Cc1nc(-c2nc(NCc3ccc4c(c3)OCO4)ncc2-c2ccsc2)sc1C
Second: COc1ccc(CC(=O)Nc2ccc(Nc3nc(C)cc(N(C)C)n3)cc2)cc1
The IC50 of the first is 7.9-fold lower: 100 nM for the first, 790 nM for the second.

First: CC1CCCN(C(=O)C(C)Nc2cc(Cl)ccc2N2CCOCC2)C1 (configuration not stated)
Second: O=C(c1ccc(Cl)c(Cl)c1)N1CCc2c([nH]c3ccccc23)C1CN1CCCC1 (configuration not stated)
The IC50 of the first is 2.6-fold lower: 320 nM for the first, 830 nM for the second.

`COc1cccc(NC(=O)Cn2c(C)c(C(=O)C(F)(F)F)c3ccccc32)c1` and `CN(C)CCC(O)(c1ccc(Br)cc1)c1cccnc1` (configuration not stated) are the same in IC50: 830 nM for the first, 830 nM for the second.

With `CCCN(CCC)CCOc1ccc(C(O)(C#CC(O)(c2ccc(OCCN(CCC)CCC)cc2)c2cccc(Cl)c2)c2cccc(Cl)c2)cc1` (configuration not stated) the IC50 was 790 nM.
